# Results: patent US9771369B2, “Compounds and methods for kinase modulation, and indications therefor” (Plexxikon Inc., priority 2014, dated 2017)
# Columns and labels:
# c-Kit kinase = c-Kit kinase (Homo sapiens (Human), UniProt P10721); assay: c-Kit biochemical assay (AlphaScreen kinase activity)
# In short: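 AlphaScreen: c-Kit phosphorylates biotin-(E4Y)3 (100 nM) at 10 μM ATP, pH 7.2 HEPES buffer with Mg/Mn, 5% DMSO, 1 h room temperature; streptavidin donor and PY30 acceptor beads detect product. Second format: 100 μM ATP, 30 nM biotin-(E4Y)10, pH 7.5. IC50 from 8-point 1:3 dilution curves.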
# [1] = system: BaF3-FL KIT D816V or BaF3-FL KIT V560G/D816V cell line; assay: Cell-based assays of c-Kit mutant kinase activity (cell proliferation, ATPlite); conditions: at least one of the c-kit cell assays of Example 7
# In short: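 BaF3 cells dependent on transfected full-length human KIT D816V or V560G/D816V (pCI-Neo, CMV promoter) were seeded at 1×10^4 cells/well and exposed to 8-point 1:3 dilutions from 10 μM top (0.2% DMSO) for three days at 37° C. ATPlite luminescence gave cell number; IC50 from concentration-response.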
# Chain of c-Kit kinase (P10721 26-976): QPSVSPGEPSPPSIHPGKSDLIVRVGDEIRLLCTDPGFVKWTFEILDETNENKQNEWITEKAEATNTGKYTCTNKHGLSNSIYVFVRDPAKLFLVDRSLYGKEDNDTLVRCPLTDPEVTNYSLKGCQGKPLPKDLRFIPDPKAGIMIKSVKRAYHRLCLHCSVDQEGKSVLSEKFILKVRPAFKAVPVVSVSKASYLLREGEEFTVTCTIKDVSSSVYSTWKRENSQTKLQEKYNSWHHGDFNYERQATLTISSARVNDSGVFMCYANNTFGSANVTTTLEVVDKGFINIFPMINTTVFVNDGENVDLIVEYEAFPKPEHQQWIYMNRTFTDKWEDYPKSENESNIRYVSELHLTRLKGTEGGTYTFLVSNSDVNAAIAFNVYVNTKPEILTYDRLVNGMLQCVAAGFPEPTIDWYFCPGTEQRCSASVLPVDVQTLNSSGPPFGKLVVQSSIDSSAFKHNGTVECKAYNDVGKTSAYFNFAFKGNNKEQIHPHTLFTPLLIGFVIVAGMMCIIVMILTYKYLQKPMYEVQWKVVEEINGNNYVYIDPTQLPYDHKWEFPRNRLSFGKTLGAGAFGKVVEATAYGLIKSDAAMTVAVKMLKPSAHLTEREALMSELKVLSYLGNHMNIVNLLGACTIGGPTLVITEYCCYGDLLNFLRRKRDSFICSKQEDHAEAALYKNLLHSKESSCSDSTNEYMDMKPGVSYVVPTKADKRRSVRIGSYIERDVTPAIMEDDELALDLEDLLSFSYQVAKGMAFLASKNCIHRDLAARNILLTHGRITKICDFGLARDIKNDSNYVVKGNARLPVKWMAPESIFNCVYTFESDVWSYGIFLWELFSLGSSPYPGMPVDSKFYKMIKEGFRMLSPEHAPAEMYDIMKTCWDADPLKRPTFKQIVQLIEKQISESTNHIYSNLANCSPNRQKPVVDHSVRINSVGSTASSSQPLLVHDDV
Structure (SMILES),IC50 (c-Kit kinase),IC50 [1]
"Cc1nc(C2CCN(c3ncnc4[nH]c(-c5ccc(F)cc5)cc34)CC2)[nH]c1-c1ccc(F)cc1 [P-3006, 6-(4-fluorophenyl)-4-[4-[5-(4-fluorophenyl)-4-methyl-1H-imidazol-2-yl]-1-piperidyl]-7H-pyrrolo[2,3-d]pyrimidine]",0.0001 to 1 µM,< 10 µM
"Cc1ccc(-c2[nH]c(C3CCN(c4ncnc5[nH]c(-c6ccc(C#N)cc6)cc45)CC3)nc2C)cc1 [P-3089, 4-[4-[4-[4-methyl-5-(p-tolyl)-1H-imidazol-2-yl]-1-piperidyl]-7H-pyrrolo[2,3-d]pyrimidin-6-yl]benzonitrile]",0.0001 to 1 µM,< 10 µM
"Cc1ccc(-c2[nH]c(C3CCN(c4ncnc5[nH]c(-c6ccc(C#N)cc6)cc45)CC3)nc2C)s1 [P-3090, 4-[4-[4-[4-methyl-5-(5-methyl-2-thienyl)-1H-imidazol-2-yl]-1-piperidyl]-7H-pyrrolo[2,3-d]pyrimidin-6-yl]benzonitrile]",0.0001 to 1 µM,< 10 µM
"COc1cc(-c2cc3c(N4CCC(c5nc(C)c(-c6ccc(OC(C)C)cc6)[nH]5)CC4)ncnc3[nH]2)ccn1 [P-3091, 4-[4-[5-(4-isopropoxyphenyl)-4-methyl-1H-imidazol-2-yl]-1-piperidyl]-6-(2-methoxy-4-pyridyl)-7H-pyrrolo[2,3-d]pyrimidine]",0.0001 to 1 µM,< 10 µM
"Cc1nc(C2CCN(c3ncnc4[nH]c(-c5ccc(F)cc5)cc34)CC2)[nH]c1-c1ccc(OC(C)C)cc1 [P-3092, 6-(4-fluorophenyl)-4-[4-[5-(4-isopropoxyphenyl)-4-methyl-1H-imidazol-2-yl]-1-piperidyl]-7H-pyrrolo[2,3-d]pyrimidine]",0.0001 to 1 µM,< 10 µM
"Cc1nc(C2CCN(c3ncnc4[nH]c(-c5ccc(C#N)cc5)cc34)CC2)[nH]c1-c1ccc(OC(C)C)cc1 [P-3093, 4-[4-[4-[5-(4-isopropoxyphenyl)-4-methyl-1H-imidazol-2-yl]-1-piperidyl]-7H-pyrrolo[2,3-d]pyrimidin-6-yl]benzonitrile]",0.0001 to 1 µM,< 10 µM
"CCOc1cc(-c2[nH]c(C3CCN(c4ncnc5[nH]c(-c6ccc(F)cc6)cc45)CC3)nc2C)ccc1C [P-3094, 4-[4-[5-(3-ethoxy-4-methyl-phenyl)-4-methyl-1H-imidazol-2-yl]-1-piperidyl]-6-(4-fluorophenyl)-7H-pyrrolo[2,3-d]pyrimidine]",0.0001 to 1 µM,< 10 µM
